The target in one data set is PD-1/PD-L1 (Homo sapiens (Human), UniProt Q9NZQ7). Put plainly: PD-1/PD-L1 Binding Assay (Alphascreen). A digest of the protocol:
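PD-1/PD-L1 binding detected by anti-6×His acceptor and streptavidin donor beads after 120 min in the dark at 25 °C. Beforehand, the two proteins were incubated 15 min at 25 °C with inhibitor at 0.015–300 nM (1% DMSO). IC50 comes from a log concentration–response curve.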
On the technique in general: Alpha assays give light when donor and acceptor beads are brought close together.

Data set [1] in a line: Pharmacokinetic Assay, single oral dose 5 mg/kg (Table 12). It counts as in vivo. As to conditions: mouse, plasma concentration, C57 female mice, single oral dose 5 mg/kg. Here is the method:
Adult C57 female mice were received to single-dose of the test compounds with 15% DMSO, 10% Kolliphor^@HS 15 and 75% saline as excipients, the mice (n=3) were giving oral administration (intragastric administration) with the compounds at a dose of 5 mg/kg. Time of blood collection: 30 min, 2 h, 4 h. approximately 0.1 mL of whole blood was collected from retro-orbital venous plexus, and placed into tubes that contained K2-EDTA as an anticoagulant. The whole blood were centrifuged at 4° C. and 4000 rpm for 10 min. The plasma was transferred into centrifuge tubes, and stored at −20° C. until being analyzed. Concentrations of test compounds in the plasma samples were analyzed with liquid chromatography-tandem mass spectrometry (LC-MS/MS). Plasma concentration-time data of individual animals was analyzed using Microsoft Excel 2010.

PD-1/PD-L1, sequence (Q9NZQ7 19-238): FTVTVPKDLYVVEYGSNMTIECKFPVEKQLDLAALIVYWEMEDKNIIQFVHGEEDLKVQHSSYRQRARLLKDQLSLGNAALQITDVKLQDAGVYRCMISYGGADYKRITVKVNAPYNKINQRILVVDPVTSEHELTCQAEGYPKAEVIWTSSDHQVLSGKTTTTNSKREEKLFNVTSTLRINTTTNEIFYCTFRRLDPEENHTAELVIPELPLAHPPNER

One may read the IC50 as the concentration needed to halve the response being measured. For `Cc1c(COc2cc(OCc3cncc(OC(F)F)c3)c(CN3CCC(F)C3)cc2Cl)cccc1-c1cccc(-c2nc3cc(CN4CCC[C@H]4C(=O)O)c(OC(F)F)cc3o2)c1C` (stereo partly drawn) [Example 209, ((2-(3′-((2-chloro-5-((5-(difluoromethoxy)pyridin-3-yl)methoxy)-4-((3-fluoropyrrolidin-1-yl)methyl)phenoxy)methyl)-2,2′-dimethyl-[1,1′-biphenyl]-3-yl)-6-(difluoromethoxy)benzo[d]oxazol-5-yl)methyl)-L-proline], the IC50 at PD-1/PD-L1 (numeric values) was 1.4 nM. In data set [1], this compound came in with a concentration at 0.5 h of 21.4 ng/mL, a concentration at 2 h of 54.9 ng/mL and a concentration at 4 h of 19.2 ng/mL.
Consider `Cc1c(-c2nc3c(o2)CCN(CCC(F)(F)F)C3)cccc1-c1cccc(-c2nc3cc(CN4CCC[C@H]4C(=O)O)c(OC(F)F)cc3o2)c1C` [Example 198, ((6-(difluoromethoxy)-2-(2,2′-dimethyl-3′-(5-(3,3,3-trifluoropropyl)-4,5,6,7-tetrahydrooxazolo[4,5-c]pyridin-2-yl)-[1,1′-biphenyl]-3-yl)benzo[d]oxazol-5-yl)methyl)proline], for which, at PD-1/PD-L1 (range symbols), the IC50 is above 50 nM. In addition, in data set [1], the concentration at 0.5 h was determined as 674 ng/mL, the concentration at 2 h stood at 1440 ng/mL and the concentration at 4 h was 1100 ng/mL.
`Cc1c(-c2nc3cc(CN4CC[C@@H](C(=O)O)C4)c(OC(F)F)cc3o2)cccc1-c1cccc(-c2nc3cc(CN4CC(C)(C)C4)c(OC(F)F)cc3o2)c1C` [Example 85, (R)-1-((6-(difluoromethoxy)-2-(3′-(6-(difluoromethoxy)-5-((3,3-dimethylazetidin-1-yl)methyl)benzo[d]oxazol-2-yl)-2,2′-dimethyl-[1,1′-biphenyl]-3-yl)benzo[d]oxazol-5-yl)methyl)pyrrolidine-3-carboxylic acid] showed a 50% inhibitory concentration (IC50) on PD-1/PD-L1 (range symbols) of 0.1 to 5 nM. For the same compound, in data set [1], the concentration at 0.5 h came to 75.9 ng/mL, the concentration at 2 h was found to be 146 ng/mL and the concentration at 4 h is 135 ng/mL.
With `Cc1c(-c2nc3cc(CN4CC(C)C4)c(OC(F)F)cc3o2)cccc1-c1cccc(-c2nc3cc(CN4CCC[C@H]4C(=O)O)c(OC(F)F)cc3o2)c1C` [Example 56, ((6-(difluoromethoxy)-2-(3′-(6-(difluoromethoxy)-5-((3-methylazetidin-1-yl)methyl)benzo[d]oxazol-2-yl)-2,2′-dimethyl-[1,1′-biphenyl]-3-yl)benzo[d]oxazol-5-yl)methyl)-L-proline], the concentration for half-maximal inhibition (IC50) at PD-1/PD-L1 (numeric values) came to 0.83 nM. Besides, in data set [1], the concentration at 0.5 h is 19.9 ng/mL, the concentration at 2 h was 192 ng/mL and the concentration at 4 h was determined as 155 ng/mL.
With `Cc1c(-c2nc3cc(CNCC(O)C(F)(F)F)c(OC(F)F)cc3o2)cccc1-c1cccc(-c2nc3cc(CN4CCC[C@H]4C(=O)O)c(OC(F)F)cc3o2)c1C` (stereo partly drawn) [Example 22, ((6-(difluoromethoxy)-2-(3′-(6-(difluoromethoxy)-5-(((3,3,3-trifluoro-2-hydroxypropyl)amino)methyl)benzo[d]oxazol-2-yl)-2,2′-dimethyl-[1,1′-biphenyl]-3-yl)benzo[d]oxazol-5-yl)methyl)-L-proline], the IC50 on PD-1/PD-L1 (numeric values) worked out at 25 nM. In data set [1], the concentration at 0.5 h was found to be 68.6 ng/mL, the concentration at 2 h was 155 ng/mL and the concentration at 4 h amounted to 81.1 ng/mL.
For `Cc1c(-c2nc3cc(CN4CCC(C)(C)C4)c(OC(F)F)cc3o2)cccc1-c1cccc(-c2nc3cc(CN4CCC[C@H]4C(=O)O)c(OC(F)F)cc3o2)c1C` [Example 67, ((6-(difluoromethoxy)-2-(3′-(6-(difluoromethoxy)-5-((3,3-dimethylpyrrolidin-1-yl)methyl)benzo[d]oxazol-2-yl)-2,2′-dimethyl-[1,1′-biphenyl]-3-yl)benzo[d]oxazol-5-yl)methyl)-L-proline], on PD-1/PD-L1 (numeric values), the IC50 was 6.7 nM. In addition, in data set [1], the concentration at 0.5 h was determined as 143 ng/mL, the concentration at 2 h was 418 ng/mL and the concentration at 4 h was 462 ng/mL.
Compound `Cc1c(-c2nc3cc(CN4CCC[C@H]4C(=O)O)c(OC(F)F)cc3o2)cccc1-c1cccc(-c2nc3cc(CN4CCC(F)C4)cc(C#N)c3o2)c1C` (stereo partly drawn) [Example 162, ((2-(3′-(7-cyano-5-((3-fluoropyrrolidin-1-yl)methyl)benzo[d]oxazol-2-yl)-2,2′-dimethyl-[1,1′-biphenyl]-3-yl)-6-(difluoromethoxy)benzo[d]oxazol-5-yl)methyl)-L-proline] gave an IC50 on PD-1/PD-L1 (range symbols) of 5 to 50 nM. In data set [1], this compound displayed a concentration at 0.5 h of 277 ng/mL, a concentration at 2 h of 670 ng/mL and a concentration at 4 h of 441 ng/mL.
The corresponding values for `C#CC1(O)CN(Cc2cc(C#N)c3oc(-c4cccc(-c5cccc(-c6nc7cc(CN8CCC[C@H]8C(=O)O)c(OC(F)F)cc7o6)c5C)c4C)nc3c2)C1` [Example 144, ((2-(3′-(7-cyano-5-((3-ethynyl-3-hydroxyazetidin-1-yl)methyl)benzo[d]oxazol-2-yl)-2,2′-dimethyl-[1,1′-biphenyl]-3-yl)-6-(difluoromethoxy)benzo[d]oxazol-5-yl)methyl)-L-proline] are 0.1 to 5 nM, 243 ng/mL, 386 ng/mL and 222 ng/mL.
On to `Cc1c(-c2nc3cc(CN4CCC[C@H]4C(=O)O)c(OC(F)F)cc3o2)cccc1-c1cccc(-c2nc3cc(CN4CC[C@@H](C)C4)cnc3o2)c1C` [Example 114, ((6-(difluoromethoxy)-2-(2,2′-dimethyl-3′-(6-(((R)-3-methylpyrrolidin-1-yl)methyl)oxazolo [5,4-b]pyridin-2-yl)-[1,1′-biphenyl]-3-yl)benzo[d]oxazol-5-yl)methyl)-L-proline], for which, on PD-1/PD-L1 (numeric values), the concentration for half-maximal inhibition (IC50) turned out to be 1 nM. In data set [1], this compound returned a concentration at 0.5 h of 65.6 ng/mL, a concentration at 2 h of 237 ng/mL and a concentration at 4 h of 152 ng/mL.
The corresponding values for `Cc1c(-c2ccc(CN3CCCC3)c(C(F)(F)F)c2)cccc1-c1cccc(-c2nc3cc(CN4CCC[C@H]4C(=O)O)c(OC(F)F)cc3o2)c1C` [Example 233, ((6-(difluoromethoxy)-2-(2,2′-dimethyl-4″- (pyrrolidin-1-ylmethyl)-3″-(trifluoromethyl)-[1,1′:3′,1″-terphenyl]-3-yl)benzo[d]oxazol-5-yl)methyl)-L-proline] are 41 nM, 143 ng/mL, 322 ng/mL and 296 ng/mL.
For `Cc1c(-c2nc3cc(CN4CCC[C@H]4C(=O)O)c(OC(F)F)cc3o2)cccc1-c1cccc(-c2nc3cc(CN4CCCC4)c(C(F)(F)F)cc3o2)c1C` [Example 101, ((6-(difluoromethoxy)-2-(2,2′-dimethyl-3′-(5-(pyrrolidin-1-ylmethyl)-6-(trifluoromethyl)benzo[d]oxazol-2-yl)-[1,1′-biphenyl]-3-yl)benzo[d]oxazol-5-yl)methyl)-L-proline], the IC50 at PD-1/PD-L1 (numeric values) came to 2.2 nM. In data set [1], this compound gave a concentration at 0.5 h of 178 ng/mL, a concentration at 2 h of 640 ng/mL and a concentration at 4 h of 579 ng/mL.
The corresponding values for `Cc1c(-c2nc3cc(CN4CCC[C@H]4C(=O)O)c(OC(F)F)cc3o2)cccc1-c1cccc(-c2ccc(CN3CCCC3)cc2Cl)c1C` [Example 231, ((2-(2″-chloro-2,2′-dimethyl-4″-(pyrrolidin-1-ylmethyl)-[1,1′:3′,1″-terphenyl]-3-yl)-6-(difluoromethoxy)benzo[d]oxazol-5-yl)methyl)-L-proline] are 78 nM, 36.9 ng/mL, 160 ng/mL and 156 ng/mL.
`Cc1c(-c2cnc(N3CCCC3)nc2)cccc1-c1cccc(-c2nc3cc(CN4CCC[C@H]4C(=O)O)c(OC(F)F)cc3o2)c1C` [Example 283, ((6-(difluoromethoxy)-2-(2,2′-dimethyl-3′-(2-(pyrrolidin-1-yl)pyrimidin-5-yl)-[1,1′-biphenyl]-3-yl)benzo[d]oxazol-5-yl)methyl)-L-proline]: the IC50 at PD-1/PD-L1 (range symbols) lay within 5 to 50 nM. Further, in data set [1], the concentration at 0.5 h came to 522 ng/mL, the concentration at 2 h was determined as 1170 ng/mL and the concentration at 4 h was determined as 965 ng/mL.
Turning to `Cc1c(-c2nc3cc(CN(C)[C@@H]4CCC[C@H]4O)c(OC(F)F)cc3o2)cccc1-c1cccc(-c2nc3cc(CN4CCC[C@H]4C(=O)O)c(OC(F)F)cc3o2)c1C` [Example 57, ((6-(difluoromethoxy)-2-(3′-(6-(difluoromethoxy)-5-((((1R,2R)-2-hydroxycyclopentyl) (methyl)amino)methyl)benzo[d]oxazol-2-yl)-2,2′-dimethyl-[1,1′-biphenyl]-3-yl)benzo[d]oxazol-5-yl)methyl)-L-proline], the IC50 at PD-1/PD-L1 (numeric values) is 1.2 nM. For the same compound, in data set [1], the concentration at 0.5 h is 27.1 ng/mL, the concentration at 2 h was 149 ng/mL and the concentration at 4 h worked out at 90 ng/mL.
The corresponding values for `Cc1c(-c2ccc3[nH]c(N)nc3c2)cccc1-c1cccc(-c2nc3cc(CN4CCC[C@H]4C(=O)O)c(OC(F)F)cc3o2)c1C` [Example 293, ((2-(3′-(2-amino-1H-benzo[d]imidazol-5-yl)-2,2′-dimethyl-[1,1′-biphenyl]-3-yl)-6-(difluoromethoxy)benzo[d]oxazol-5-yl)methyl)-L-proline] are 11 nM, 6.68 ng/mL, 10.8 ng/mL and 3.57 ng/mL.

(Values after patent US12187713B2, “Immunomodulators, compositions and methods thereof” (Betta Pharmaceuticals Co., Ltd, priority 2019, dated 2025).)
